Measurements reported in patent publication US8383618B2, “C2-fluoro substituted piperazine linked pyrrolo[2,1-C][1,4] benzodiazepine dimers and a process for the preparation thereof” (Council of Scientific & Industrial Research, priority 2008, dated 2013).
Where two headings read alike, the source gives them in different places.

Columns and labels:
calf thymus (CT) DNA [1] = test: Thermal denaturation studies; type: binding; conditions: [PBD]:[DNA] molar ratio 1:5; CT-DNA 100 μM, ligand 20 μM; sodium phosphate buffer pH 7.00
Description: The DNA binding affinity of the C2-Fluoro substituted piperazine linked pyrrolo[2,1c][1,4]benzodiazepine dimers were subjected to thermal denaturation studies using calf thymus (CT) DNA (Jones, G. B.; Davey, C. L.; Jenkins, T. C.; Kamal, A.; Kneale, G. G.; Neidle, S.; Webster, G. D.; Thurston, D. E. Anti-cancer Drug Des. 1990, 5, 249. McConnaughie, A. W.; Jenkins, T. C. J. Med. Chem. 1995, 38, 3488). The studies for these compounds (IXa-f) were carried out by DNA/ligand molar ratio is 1:5 the increase in the helix melting temperature (ΔTm) for each compound was examined at 0 h. […] Data for DSB-120 and SJG-136 are included in Table-3 for comparison. The synthetic DC-81 dimer (DSB-120) gives a ΔTm 10.2° C. and SJC-136 gives a […]Tm of 25° C. under identical experimental condition.

A498 = test: NCI in vitro anticancer screen (SRB); type: cell-based, human; conditions: Renal, 48 h exposure
Description: (§1) The above compounds were evaluated for in vitro anticancer activity against sixty human tumor cells derived from nine cancer types (leukemia, non small cell cancer, colon cancer CNS cancer, melanoma, ovarian cancer renal cancer, prostate cancer and breast cancer) as per NCI protocol. For each compound, dose response curves for each cell line were measured at a minimum of five concentrations at 10-fold dilution. A protocol of 48 h continuous drug exposure was used, and a sulforhodamine B (SRB) protein assay was used to estimate cell viability or growth. The concentration causing 50% cell growth inhibition (GI50), total cell growth inhibition (TGI, 0% growth) and 50% cell death (LC-50% growth) compared with the control was calculated.

SNB-19 = test: NCI in vitro anticancer screen (SRB); type: cell-based, human; conditions: CNS, 48 h exposure
Description: as §1

IGROV1 = test: NCI in vitro anticancer screen (SRB); type: cell-based, human; conditions: Ovarian, 48 h exposure
Description: as §1

HS 578T = test: NCI in vitro anticancer screen (SRB); type: cell-based, human; conditions: Breast, 48 h exposure
Description: as §1

PC-3 = test: NCI in vitro anticancer screen (SRB); type: cell-based, human; conditions: Prostate, 48 h exposure
Description: as §1

LOX IMVI = test: NCI in vitro anticancer screen (SRB); type: cell-based, human; conditions: Melanoma, 48 h exposure
Description: as §1

SK-MEL-2 = test: NCI in vitro anticancer screen (SRB); type: cell-based, human; conditions: Melanoma, 48 h exposure
Description: as §1

RPMI-8226 = test: NCI in vitro anticancer screen (SRB); type: cell-based, human; conditions: Leukemia, 48 h exposure
Description: as §1

COLO 205 = test: NCI in vitro anticancer screen (SRB); type: cell-based, human; conditions: Colon, 48 h exposure
Description: as §1

HOP-62 = test: NCI in vitro anticancer screen (SRB); type: cell-based, human; conditions: Non-small cell lung, 48 h exposure
Description: as §1

HCT-116 = test: NCI in vitro anticancer screen (SRB); type: cell-based, human; conditions: Colon, 48 h exposure
Description: as §1

CAKI-1 = test: NCI in vitro anticancer screen (SRB); type: cell-based, human; conditions: Renal, 48 h exposure
Description: as §1

OVCAR-3 = test: NCI in vitro anticancer screen (SRB); type: cell-based, human; conditions: Ovarian, 48 h exposure
Description: as §1

SK-MEL-28 = test: NCI in vitro anticancer screen (SRB); type: cell-based, human; conditions: Melanoma, 48 h exposure
Description: as §1

K-562 = test: NCI in vitro anticancer screen (SRB); type: cell-based, human; conditions: Leukemia, 48 h exposure
Description: as §1

SF-539 = test: NCI in vitro anticancer screen (SRB); type: cell-based, human; conditions: CNS, 48 h exposure
Description: as §1

MOLT-4 = test: NCI in vitro anticancer screen (SRB); type: cell-based, human; conditions: Leukemia, 48 h exposure
Description: as §1

T-47D = test: NCI in vitro anticancer screen (SRB); type: cell-based, human; conditions: Breast, 48 h exposure
Description: as §1

UACC-62 = test: NCI in vitro anticancer screen (SRB); type: cell-based, human; conditions: Melanoma, 48 h exposure
Description: as §1

MDA-MB-435 = test: NCI in vitro anticancer screen (SRB); type: cell-based, human; conditions: Breast, 48 h exposure
Description: as §1

SF-268 = test: NCI in vitro anticancer screen (SRB); type: cell-based, human; conditions: CNS, 48 h exposure
Description: as §1

BT-549 = test: NCI in vitro anticancer screen (SRB); type: cell-based, human; conditions: Breast, 48 h exposure
Description: as §1

NCI-H23 = test: NCI in vitro anticancer screen (SRB); type: cell-based, human; conditions: Non-small cell lung, 48 h exposure
Description: as §1

MCF7 = test: NCI in vitro anticancer screen (SRB); type: cell-based, human; conditions: Breast, 48 h exposure
Description: as §1

HL-60(TB) = test: NCI in vitro anticancer screen (SRB); type: cell-based, human; conditions: Leukemia, 48 h exposure
Description: as §1

MDA-MB-468 = test: NCI in vitro anticancer screen (SRB); type: cell-based, human; conditions: Breast, 48 h exposure
Description: as §1

CCRF-CEM = test: NCI in vitro anticancer screen (SRB); type: cell-based, human; conditions: Leukemia, 48 h exposure
Description: as §1

SNB-75 = test: NCI in vitro anticancer screen (SRB); type: cell-based, human; conditions: CNS, 48 h exposure
Description: as §1

786-0 = test: NCI in vitro anticancer screen (SRB); type: cell-based, human; conditions: Renal, 48 h exposure
Description: as §1

HOP-92 = test: NCI in vitro anticancer screen (SRB); type: cell-based, human; conditions: Non-small cell lung, 48 h exposure
Description: as §1

U251 = test: NCI in vitro anticancer screen (SRB); type: cell-based, human; conditions: CNS, 48 h exposure
Description: as §1

SK-OV-3 = test: NCI in vitro anticancer screen (SRB); type: cell-based, human; conditions: Ovarian, 48 h exposure
Description: as §1

DU-145 = test: NCI in vitro anticancer screen (SRB); type: cell-based, human; conditions: Prostate, 48 h exposure
Description: as §1

NCI-H460 = test: NCI in vitro anticancer screen (SRB); type: cell-based, human; conditions: Non-small cell lung, 48 h exposure
Description: as §1

SK-MEL-5 = test: NCI in vitro anticancer screen (SRB); type: cell-based, human; conditions: Melanoma, 48 h exposure
Description: as §1

SN12C = test: NCI in vitro anticancer screen (SRB); type: cell-based, human; conditions: Renal, 48 h exposure
Description: as §1

M14 = test: NCI in vitro anticancer screen (SRB); type: cell-based, human; conditions: Melanoma, 48 h exposure
Description: as §1

SR = test: NCI in vitro anticancer screen (SRB); type: cell-based, human; conditions: Leukemia, 48 h exposure
Description: as §1

SW-620 = test: NCI in vitro anticancer screen (SRB); type: cell-based, human; conditions: Colon, 48 h exposure
Description: as §1

MALME-3M = test: NCI in vitro anticancer screen (SRB); type: cell-based, human; conditions: Melanoma, 48 h exposure
Description: as §1

NCI-H522 = test: NCI in vitro anticancer screen (SRB); type: cell-based, human; conditions: Non-small cell lung, 48 h exposure
Description: as §1

[2] = test system: sixty human tumor cells derived from nine cancer types; test: NCI in vitro anticancer screen (SRB), whole panel; type: cell-based
Description: as §1

calf thymus (CT) DNA [3] = conditions: [PBD]:[DNA] molar ratio 1:5; literature value; listed as SJC-136; cited from earlier work
[4] = human tumor cell lines, 48 h drug exposure, SRB

## 1,1′-{[(bisbutane-1,N-diyl)piperazine]dioxy}bis[(11aS)-2-fluoro-7-methoxy-1,2,3,11a-tetrahydro-5H-pyrrolo[2,1-c][1,4]benzodiazepine-5-one] [IXb]
Calf thymus (CT) DNA [1]
  ΔTm after incubation at 37° C. for 0 h: 38.0 °C

## 1,1′-{[(bispentane-1,N-diyl)piperazine]dioxy}bis[(11aS)-2-fluoro-7-methoxy-1,2,3,11a-tetrahydro-5H-pyrrolo[2,1-c][1,4]benzodiazepine-5-one] [IXc]
Calf thymus (CT) DNA [1]
  ΔTm after incubation at 37° C. for 0 h: 37.0 °C

## COc1cc2c(cc1OCCCN1CCN(CCCOc3cc4c(cc3OC)C(=O)N3CC(F)C[C@H]3C=N4)CC1)N=C[C@@H]1CC(F)CN1C2=O (stereo partly drawn) [Compound IXa, 1,1′-{[(bispropane-1,N-diyl)piperazine]dioxy}bis[(11aS)-2-fluoro-7-methoxy-1,2,3,11a-tetrahydro-5H-pyrrolo[2,1-c][1,4]benzodiazepine-5-one]]
A498
  GI50: 66 nM
SNB-19
  GI50: 28 nM
IGROV1
  GI50: 59 nM
HS 578T
  GI50: 48 nM
PC-3
  GI50: 15 nM
LOX IMVI
  GI50: 17 nM
SK-MEL-2
  GI50: 43 nM
RPMI-8226
  GI50: 22 nM
COLO 205
  GI50: 40 nM
HOP-62
  GI50: 12 nM
HCT-116
  GI50: 28 nM
CAKI-1
  GI50: 28 nM
OVCAR-3
  GI50: 48 nM
SK-MEL-28
  GI50: 31 nM
SK-MEL-28; listed as IX a
  GI50: 43 nM
K-562
  GI50: 15 nM
SF-539
  GI50: 11 nM
MOLT-4
  GI50: 10 nM
T-47D
  GI50: 13 nM
UACC-62
  GI50: 26 nM
MDA-MB-435
  GI50: 34 nM
SF-268
  GI50: 11 nM
BT-549
  GI50: 95 nM
NCI-H23
  GI50: 32 nM
MCF7
  GI50: 10 nM
HL-60(TB)
  GI50: 10 nM
MDA-MB-468
  GI50: 10 nM
CCRF-CEM
  GI50: 10 nM
SNB-75
  GI50: 33 nM
786-0
  GI50: 39 nM
HOP-92
  GI50: 96 nM
U251
  GI50: 15 nM
SK-OV-3
  GI50: 70 nM
DU-145
  GI50: 47 nM
NCI-H460
  GI50: 10 nM
SK-MEL-5
  GI50: 31 nM
SN12C
  GI50: 18 nM
M14
  GI50: 35 nM
SR
  GI50: 10 nM
SW-620
  GI50: 56 nM
MALME-3M
  GI50: 24 nM
NCI-H522
  GI50: 10 nM
Calf thymus (CT) DNA [1]
  ΔTm after incubation at 37° C. for 0 h: 37.0 °C
[2]; against fifty nine cell lines in nine cell panels
  GI50: < 95 nM
[2]; [4]
  Log10 GI50 mean graph midpoint (MG_MID): −7.28
  Log10 LC50 mean graph midpoint (MG_MID): −4.65
  Log10 TGI mean graph midpoint (MG_MID): −6.12

## COc1cc2c(cc1OCCCOc1cc3c(cc1OC)C(=O)N1CCC[C@H]1C=N3)N=C[C@@H]1CCCN1C2=O [DSB-120, reference compound]
Calf thymus (CT) DNA [1]
  ΔTm after incubation at 37° C. for 0 h: 10.2 °C

## COc1cc2c(cc1OCCCCN1CCN(CCCCOc3cc4c(cc3OC)C(=O)N3CC(F)(F)C[C@H]3C=N4)CC1)N=C[C@@H]1CC(F)(F)CN1C2=O [IXe, 1,1′-{[(bisbutane-1,N-diyl)piperazine]dioxy}bis[(11aS)-2-2-difluoro-7-methoxy-1,2,3,11a-tetrahydro-5H-pyrrolo[2,1-c][1,4]benzodiazepine-5-one]]
Calf thymus (CT) DNA [1]
  ΔTm after incubation at 37° C. for 0 h: 14.0 °C

## COc1cc2c(cc1OCCCCCN1CCN(CCCCCOc3cc4c(cc3OC)C(=O)N3CC(F)(F)C[C@H]3C=N4)CC1)N=C[C@@H]1CC(F)(F)CN1C2=O [IXf, 1,1′-{[(bispentane-1,N-diyl)piperazine]dioxy}bis[(11aS)-2-2-difluoro-7-methoxy-1,2,3,11a-tetrahydro-5H-pyrrolo[2,1-c][1,4]benzodiazepine-5-one]]
Calf thymus (CT) DNA [1]
  ΔTm after incubation at 37° C. for 0 h: 13.0 °C

## C=C1C[C@H]2C=Nc3cc(OCCCOc4cc5c(cc4OC)C(=O)N4CC(=C)C[C@H]4C=N5)c(OC)cc3C(=O)N2C1 [SJG-136]
Calf thymus (CT) DNA [3]
  ΔTm after incubation at 37° C. for 0 h: 25 °C
